± gives the expanded uncertainty stated by the source.

For series [1] the following is noted: 101 kPa, Liquid.
Series [2] can be described thus: xn = mol fraction of the nth substance listed. The following applies: 101 kPa, Liquid, x2 = 0.

`C[S+](C)[O-]` [dimethyl sulfoxide]: the mass density is given as 1096.29 ± 0.28 kg/m3 in series [1] (298.15 K); 1091.44 ± 0.28 kg/m3 in series [1] (303.15 K); 1086.41 ± 0.27 kg/m3 in series [1] (308.15 K); 1081.59 ± 0.26 kg/m3 in series [1] (313.15 K); 1076.46 ± 0.25 kg/m3 in series [1] (318.15 K). Moreover, the viscosity in series [1] (298.15 K) came to 1.996 ± 0.024 mPa·s; in series [1] (303.15 K), 1.836 ± 0.022 mPa·s; in series [1] (308.15 K) it was 1.669 ± 0.02 mPa·s; in series [1] (313.15 K), 1.535 ± 0.019 mPa·s; in series [1] (318.15 K) it was 1.393 ± 0.017 mPa·s.
Turning to `O` [water] + C[S+](C)[O-], the viscosity is reported as 0.8901 ± 0.012 mPa·s in series [2] (298.15 K); 0.7973 ± 0.011 mPa·s in series [2] (303.15 K); 0.7193 ± 0.0098 mPa·s in series [2] (308.15 K); 0.653 ± 0.009 mPa·s in series [2] (313.15 K); 0.5961 ± 0.0083 mPa·s in series [2] (318.15 K).

As a reminder, the mass density is the mass of a sample divided by its volume. In general, viscosity refers to the resistance of a fluid to flow.

These data come from the NIST ThermoML archive (doi:10.1016/j.jct.2006.12.012).
